Test results taken from BindingDB's records for doi:10.1016/S0014-827X(03)00113-7 (Universit&Aagrove, 2003).

Assays:
[1] = biological target: Muscarinic acetylcholine receptor M3 (Homo sapiens, UniProt P20309)
[2] = biological target: T1, Muscarinic acetylcholine receptor M2 (Homo sapiens, UniProt P08172)
T1 sequence (P08172 whole entry): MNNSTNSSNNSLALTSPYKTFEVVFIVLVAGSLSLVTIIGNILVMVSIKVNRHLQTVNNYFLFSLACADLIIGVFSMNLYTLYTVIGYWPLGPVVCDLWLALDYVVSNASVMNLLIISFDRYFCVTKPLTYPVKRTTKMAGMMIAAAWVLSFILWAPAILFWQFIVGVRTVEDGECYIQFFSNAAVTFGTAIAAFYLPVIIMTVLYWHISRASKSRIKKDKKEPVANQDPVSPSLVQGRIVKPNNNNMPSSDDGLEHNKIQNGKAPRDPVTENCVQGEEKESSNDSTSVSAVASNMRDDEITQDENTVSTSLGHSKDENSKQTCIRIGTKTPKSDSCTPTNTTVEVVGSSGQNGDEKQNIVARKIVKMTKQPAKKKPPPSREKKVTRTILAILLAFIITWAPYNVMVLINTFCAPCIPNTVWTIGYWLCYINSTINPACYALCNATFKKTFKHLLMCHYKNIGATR

[3] = biological target: T2, Muscarinic acetylcholine receptor M5 (Homo sapiens, UniProt P08912)
T2 sequence (P08912 whole entry): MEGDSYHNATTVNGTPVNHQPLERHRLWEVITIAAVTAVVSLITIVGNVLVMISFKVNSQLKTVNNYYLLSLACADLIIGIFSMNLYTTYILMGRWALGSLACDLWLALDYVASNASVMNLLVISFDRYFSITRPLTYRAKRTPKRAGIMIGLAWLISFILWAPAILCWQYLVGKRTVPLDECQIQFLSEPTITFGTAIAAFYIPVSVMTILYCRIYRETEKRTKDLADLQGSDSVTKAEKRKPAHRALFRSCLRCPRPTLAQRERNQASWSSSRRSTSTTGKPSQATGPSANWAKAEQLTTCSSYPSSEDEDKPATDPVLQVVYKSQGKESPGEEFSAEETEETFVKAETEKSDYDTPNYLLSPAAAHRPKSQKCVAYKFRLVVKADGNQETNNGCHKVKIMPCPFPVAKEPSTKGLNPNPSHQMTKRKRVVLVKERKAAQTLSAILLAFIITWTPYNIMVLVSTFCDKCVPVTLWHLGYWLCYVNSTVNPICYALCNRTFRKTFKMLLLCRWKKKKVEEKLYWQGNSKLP

Muscarinic acetylcholine receptor M3, sequence (P20309 whole entry): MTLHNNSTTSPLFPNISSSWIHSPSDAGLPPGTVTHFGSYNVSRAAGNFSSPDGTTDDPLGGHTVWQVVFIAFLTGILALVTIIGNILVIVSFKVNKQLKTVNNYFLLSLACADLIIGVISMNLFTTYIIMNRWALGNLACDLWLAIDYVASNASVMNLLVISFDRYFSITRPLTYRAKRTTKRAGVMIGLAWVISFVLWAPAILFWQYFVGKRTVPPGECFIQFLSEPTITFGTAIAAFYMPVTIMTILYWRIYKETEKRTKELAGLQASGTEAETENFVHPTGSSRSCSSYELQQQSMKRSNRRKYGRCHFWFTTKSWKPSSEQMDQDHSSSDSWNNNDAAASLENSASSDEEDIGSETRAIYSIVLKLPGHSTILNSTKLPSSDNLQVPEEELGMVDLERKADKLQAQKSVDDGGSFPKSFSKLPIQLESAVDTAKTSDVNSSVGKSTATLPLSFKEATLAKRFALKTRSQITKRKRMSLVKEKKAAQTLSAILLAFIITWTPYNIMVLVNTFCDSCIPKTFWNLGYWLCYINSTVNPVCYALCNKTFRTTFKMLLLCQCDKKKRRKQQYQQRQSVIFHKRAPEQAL

Ki [1] [nM]	Ki [2] [nM]	Ki [3] [nM]	Compound
75.9	275	132	Cc1n(CC#CCN2OCCC2=O)cc[n+]1C [2-[4-(2,3-Dimethyl-1H-imidazolium-1-yl)-2-butynyl]isoxazolidin-3-one iodide]
6.31	93.3	51.3	Cc1n(CC#CCOC2=NOCC2)cc[n+]1C [NSC_0]
102	72.4	0.51	Cc1nccn1CC#CCN1OCCC1=O [NSC_0]

The next lines start with the compound.

Compound	Ki [1] [nM]	Ki [2] [nM]	Ki [3] [nM]
Cc1nccn1CC#CCOC1=NOCC1 [3-[4-(2-Methyl-1H-imidazol-1-yl)-2-butynyl]oxy-delta2-isoxazoline sesquifumarate]	2.51	3.63	6.17
Cc1nccn1CC#CCOc1ccon1 [3-[4-(2-Methyl-1H-imidazol-1-yl)-2-butynyl]oxyisoxazole sesquifumarate]	110	282	209
Cc1n(CC#CCOc2ccon2)cc[n+]1-c1ccc(Br)cc1 [NSC_0]	17	112	60.3
